{"source": "patent US20090088462A1", "about": "“Pharmaceutical Composition for Enhancing Adiponectin Production” (Daiichi Sankyo Company, Limited, priority 2005, published 2009)", "tested_on": "adiponectin", "assay": "Comparative test for adiponectin production enhancing effect: plasma adiponectin concentration by radioimmunoassay", "format": "in vivo", "settings": "female db/db mice, one week oral; Compound A 0.3 mg/kg vs B 3 mg/kg (P<0.001) and vs C 30 mg/kg (P<0.01), Tukey's multiple comparison test", "experimental": "Plasma glucose levels and plasma adiponectin concentrations were compared between each of the groups respectively. The plasma adiponectin concentration was measured using a radioimmunoassay kit (Mouse Adiponectin RIA Kit, Linco Research, Inc.). Plasma was diluted by 100 times using a buffer provided with the kit, and measurement was conducted using the diluted plasma (5 μL) (final dilution rate: 2000 times). The radioactivity was measured using a gamma counter, and adiponectin concentration was calculated from the measured radioactivity (measurement unit: μg/mL).", "note": "Counter-ions that a name gives are not always drawn."}
{"molecule": "COc1ccc2nc(COc3ccc(CC4SC(=O)NC4=O)cc3)n(C)c2c1", "note": "(stereo not shown) [Compound A, 5-[4-(6-Methoxy-1-methyl-1H-benzimidazol-2-ylmethoxy)benzyl]thiazolidine-2,4-dione hydrochloride]", "values": [{"measurement": "plasma adiponectin concentration compared with Compound B and Compound C administration groups", "value": "significant increasing effect"}]}
